Test results as given in patent US20190119298A1, “FUSED 3-PHENYLTETRAMIC ACID DERIVATIVES HAVING HERBICIDAL ACTION” (Bayer CropScience Aktiengesellschaft, priority 2016, published 2019).

How the values were obtained:
Format in all cases: in vivo
[1] = system: Setaria viridis; assay: Post-emergence herbicidal effect; conditions: one-leaf stage, 320 g/ha, assessed visually after about 3 weeks, 100% = plants have died
Procedure: (§1) SETVI: Setaria viridis Seeds of monocotyledonous and dicotyledonous weed and crop plants are laid out in sandy loam soil in wood-fibre pots, covered with soil and cultivated in a greenhouse under good growth conditions. 2 to 3 weeks after sowing, the test plants are treated at the one-leaf stage. The compounds of the invention, formulated in the form of wettable powders (WP) or as emulsion concentrates (EC), are then sprayed onto the green parts of the plants as aqueous suspension or emulsion at a water application rate equating to 600 to 800 L/ha with addition of 0.2% wetting agent. After the test plants have been left to stand in the greenhouse under optimal growth conditions for about 3 weeks, the action of the preparations is assessed visually in comparison to untreated controls (herbicidal action in percent (%): 100% activity=the plants have died, 0% activity=like control plants).

[2] = system: Alopecurus myosuroides; assay: Post-emergence herbicidal effect; conditions: one-leaf stage, 320 g/ha, assessed visually after about 3 weeks, 100% = plants have died
Procedure: as §1, with “ALOMY: Alopecurus myosuroides” for “SETVI: Setaria viridis”

[3] = system: Lolium multiflorum; assay: Post-emergence herbicidal effect; conditions: one-leaf stage, 320 g/ha, assessed visually after about 3 weeks, 100% = plants have died
Procedure: as §1, with “LOLMU: Lolium multiflorum” for “SETVI: Setaria viridis”

[4] = system: Alopecurus myosuroides; assay: Pre-emergence herbicidal effect; conditions: 320 g/ha, scored visually after 3 weeks vs untreated controls, 100% = plants have died
Text: (§2) Seeds of monocotyledonous and dicotyledonous weed plants and crop plants are laid out in sandy loam soil in wood-fibre pots and covered with soil. The compounds of the invention, formulated in the form of wettable powders (WP) or as emulsion concentrates (EC), are then applied to the surface of the covering soil as aqueous suspension or emulsion at a water application rate equating to 600 to 800 L/ha with addition of 0.2% wetting agent. After the treatment, the pots are placed in a greenhouse and kept under good growth conditions for the trial plants. The damage to the test plants is scored visually after a test period of 3 weeks by comparison with untreated controls (herbicidal activity in percent (%): 100% activity=the plants have died, 0% activity=like control plants). ALOMY: Alopecurus myosuroides

[5] = system: Lolium multiflorum; assay: Pre-emergence herbicidal effect; conditions: 320 g/ha, scored visually after 3 weeks vs untreated controls, 100% = plants have died
Text: as §2, with “LOLMU: Lolium multiflorum” for “ALOMY: Alopecurus myosuroides”

[6] = system: Echinochloa crus-galli; assay: Post-emergence herbicidal effect; conditions: one-leaf stage, 320 g/ha, assessed visually after about 3 weeks, 100% = plants have died
Procedure: as §1, with “ECHCG: Echinochloa crus-galli” for “SETVI: Setaria viridis”

[7] = system: Avena fatua; assay: Post-emergence herbicidal effect; conditions: one-leaf stage, 320 g/ha, assessed visually after about 3 weeks, 100% = plants have died
Procedure: as §1, with “AVEFA: Avena fatua” for “SETVI: Setaria viridis”

[8] = system: Setaria viridis; assay: Pre-emergence herbicidal effect; conditions: 320 g/ha, scored visually after 3 weeks vs untreated controls, 100% = plants have died
Text: as §2, with “SETVI: Setaria viridis” for “ALOMY: Alopecurus myosuroides”

[9] = system: Echinochloa crus-galli; assay: Pre-emergence herbicidal effect; conditions: 320 g/ha, scored visually after 3 weeks vs untreated controls, 100% = plants have died
Text: as §2, with “ECHCG: Echinochloa crus-galli” for “ALOMY: Alopecurus myosuroides”

[10] = system: Avena fatua; assay: Pre-emergence herbicidal effect; conditions: 320 g/ha, scored visually after 3 weeks vs untreated controls, 100% = plants have died
Text: as §2, with “AVEFA: Avena fatua” for “ALOMY: Alopecurus myosuroides”

Cc1cc(C)c(C2=C(O)C3COCCCN3C2=O)c(C)c1 (racemic) [Ia-2-1]
Post-emergence effectiveness SETVI (herbicidal action in percent) [1]: 100% | Post-emergence effectiveness ALOMY (herbicidal action in percent) [2]: 100% | Post-emergence effectiveness LOLMU (herbicidal action in percent) [3]: 100% | Pre-emergence action ALOMY (herbicidal activity in percent) [4]: 80% | Pre-emergence action LOLMU (herbicidal activity in percent) [5]: 100% | Post-emergence effectiveness ECHCG (herbicidal action in percent) [6]: 100% | Post-emergence effectiveness AVEFA (herbicidal action in percent) [7]: 100%

CCc1cc(C)cc(CC)c1C1=C(O)C2COCCCN2C1=O (racemic) [Ia-2-2]
Post-emergence effectiveness SETVI (herbicidal action in percent) [1]: 100% | Post-emergence effectiveness ALOMY (herbicidal action in percent) [2]: 100% | Post-emergence effectiveness LOLMU (herbicidal action in percent) [3]: 100% | Pre-emergence action ALOMY (herbicidal activity in percent) [4]: 80% | Pre-emergence action LOLMU (herbicidal activity in percent) [5]: 100% | Pre-emergence action SETVI (herbicidal activity in percent) [8]: 100% | Pre-emergence action ECHCG (herbicidal activity in percent) [9]: 100% | Pre-emergence action AVEFA (herbicidal activity in percent) [10]: 90% | Post-emergence effectiveness ECHCG (herbicidal action in percent) [6]: 100% | Post-emergence effectiveness AVEFA (herbicidal action in percent) [7]: 100%

CCc1cc(C)cc(CC)c1C1=C(O)C2CCOCCN2C1=O (stereo not drawn) [Example Ia-1-3, 8-(2,6-Diethyl-4-methylphenyl)-9-hydroxy-1,4,5,9a-tetrahydropyrrolo[1,2-d][1,4]oxazepin-7(2H)-one]
Post-emergence effectiveness SETVI (herbicidal action in percent) [1]: 100% | Post-emergence effectiveness ALOMY (herbicidal action in percent) [2]: 100% | Post-emergence effectiveness LOLMU (herbicidal action in percent) [3]: 100% | Pre-emergence action ALOMY (herbicidal activity in percent) [4]: 100% | Pre-emergence action LOLMU (herbicidal activity in percent) [5]: 100% | Pre-emergence action SETVI (herbicidal activity in percent) [8]: 100% | Pre-emergence action ECHCG (herbicidal activity in percent) [9]: 100% | Pre-emergence action AVEFA (herbicidal activity in percent) [10]: 100% | Post-emergence effectiveness ECHCG (herbicidal action in percent) [6]: 100% | Post-emergence effectiveness AVEFA (herbicidal action in percent) [7]: 100%

CCc1cc(C)cc(CC)c1C1=C(OC(=O)OC)C2CCOCCN2C1=O (stereo not drawn) [Example Ib-1-1, 8-(2,6-Diethyl-4-methylphenyl)-7-oxo-1,2,4,5,7,9a-hexahydropyrrolo[1,2-d][1,4]oxazepin-9-yl methyl carbonate]
Post-emergence effectiveness SETVI (herbicidal action in percent) [1]: 100% | Post-emergence effectiveness ALOMY (herbicidal action in percent) [2]: 100% | Post-emergence effectiveness LOLMU (herbicidal action in percent) [3]: 100% | Pre-emergence action ALOMY (herbicidal activity in percent) [4]: 100% | Pre-emergence action LOLMU (herbicidal activity in percent) [5]: 100% | Pre-emergence action SETVI (herbicidal activity in percent) [8]: 100% | Pre-emergence action ECHCG (herbicidal activity in percent) [9]: 100% | Pre-emergence action AVEFA (herbicidal activity in percent) [10]: 100% | Post-emergence effectiveness ECHCG (herbicidal action in percent) [6]: 100% | Post-emergence effectiveness AVEFA (herbicidal action in percent) [7]: 100%

CCc1cccc(C)c1C1=C(OC(C)=O)C2CCOCCN2C1=O (stereo not drawn) [Ib-1-15]
Post-emergence effectiveness SETVI (herbicidal action in percent) [1]: 100% | Post-emergence effectiveness ALOMY (herbicidal action in percent) [2]: 100% | Post-emergence effectiveness LOLMU (herbicidal action in percent) [3]: 100% | Pre-emergence action ALOMY (herbicidal activity in percent) [4]: 100% | Pre-emergence action LOLMU (herbicidal activity in percent) [5]: 100% | Pre-emergence action SETVI (herbicidal activity in percent) [8]: 100% | Pre-emergence action ECHCG (herbicidal activity in percent) [9]: 100% | Post-emergence effectiveness ECHCG (herbicidal action in percent) [6]: 100% | Post-emergence effectiveness AVEFA (herbicidal action in percent) [7]: 100%

CCOC(=O)OC1=C(c2c(CC)cc(Cl)cc2OC)C(=O)N2CCOCCC12 (stereo not drawn) [Ib-1-17]
Post-emergence effectiveness SETVI (herbicidal action in percent) [1]: 100% | Post-emergence effectiveness ALOMY (herbicidal action in percent) [2]: 100% | Post-emergence effectiveness LOLMU (herbicidal action in percent) [3]: 100% | Pre-emergence action ALOMY (herbicidal activity in percent) [4]: 100% | Pre-emergence action SETVI (herbicidal activity in percent) [8]: 100% | Pre-emergence action ECHCG (herbicidal activity in percent) [9]: 100% | Pre-emergence action AVEFA (herbicidal activity in percent) [10]: 100% | Post-emergence effectiveness ECHCG (herbicidal action in percent) [6]: 100% | Post-emergence effectiveness AVEFA (herbicidal action in percent) [7]: 100%

CCc1cc(C)cc(C)c1C1=C(OC(C)=O)C2=CCOCCN2C1=O [Ib-3-4]
Post-emergence effectiveness SETVI (herbicidal action in percent) [1]: 100% | Post-emergence effectiveness ALOMY (herbicidal action in percent) [2]: 90% | Post-emergence effectiveness LOLMU (herbicidal action in percent) [3]: 80% | Post-emergence effectiveness ECHCG (herbicidal action in percent) [6]: 90% | Post-emergence effectiveness AVEFA (herbicidal action in percent) [7]: 80%

CCc1cc(Cl)cc(OC)c1C1=C(OC(=O)C(C)(C)C)C2=CCOCCN2C1=O [Ib-3-10]
Post-emergence effectiveness SETVI (herbicidal action in percent) [1]: 100% | Post-emergence effectiveness ALOMY (herbicidal action in percent) [2]: 100% | Post-emergence effectiveness LOLMU (herbicidal action in percent) [3]: 100% | Pre-emergence action ALOMY (herbicidal activity in percent) [4]: 90% | Pre-emergence action LOLMU (herbicidal activity in percent) [5]: 100% | Pre-emergence action SETVI (herbicidal activity in percent) [8]: 100% | Pre-emergence action ECHCG (herbicidal activity in percent) [9]: 100% | Post-emergence effectiveness ECHCG (herbicidal action in percent) [6]: 100% | Post-emergence effectiveness AVEFA (herbicidal action in percent) [7]: 100%
